Data on eleven molecules can be found in patent publication US6770652B2, “Multiple acting anti-angiogenic and cytotoxic compounds and methods for using the same” (Duquesne University of the Holy Ghost, priority 2001, dated 2004).

In data set [1] the test system is chorioallantoic membrane (CAM) of 10-day old chicken embryos. Put plainly: CAM assay (growth factor-induced angiogenesis on chorioallantoic membrane). In kind it is in vivo. As to conditions: for IC50: Gallus gallus, read-out: CAM angiogenesis Inhibition, apparent IC50. The method, then: Human VEGF-165 and BFGF (200 ng each) were added to saturation to a microbial testing disk and placed onto the chorioallantoic membrane (CAM) of 10-day old chicken embryos. Eight hours after the growth factor treatment, unknown compounds (100 μg) were added to the same microbial testing disk. Growth factors and embryos were allowed to incubate an additional 40 hours. CAMS were removed, paraformaldehyde (4% in PBS) fixed, placed onto Petri dishes, and digital images taken at 7.5× using a dissecting microscope. A 1×1-cm grid was then added to the digital CAM images and the number of vessels within each grid counted as a measure of vascularity. […] Data were then graphed (FIG. 1) as a percent of growth factor-induced blood vessel amounts.

Data set [2] addresses Flk-1 (Homo sapiens, UniProt P35968). Description: Phospho-Flk1 phosphotyrosine ELISA (cytoblot) on whole U251 glioblastoma cells; Flk1 kinase inhibition. In kind it is cell-based. Background: ELISA stands for enzyme-linked immunosorbent assay.
Description: Reactions were stopped by the aspiration of media and the addition of phosphate buffered saline (PBS) containing 0.05% triton X-100, protease inhibitor cocktail and phosphatase inhibitor cocktail 2 (Sigma Chemical company) for 10 minutes on ice. Cells were then fixed at 60° C. for 30 minutes and then cold methanol added to the cells for five minutes to further permeabilize them for antibody penetration. Cells were blocked for one hour with 1% bovine serum albumin in PBS, washed twice in PBS, and then anti-phosphotyrosine-HRP conjugate (Oncogene Research) added at 1:250 dilution overnight. The antibody was then removed, the cells washed three times in PBS with 1% BSA and once with PBS, and luminol-peroxide reagent added (Pierce Biochemical) for 5 minutes. […] Data are graphed as a percentage of growth factor (EGF, VEGF) treated controls.
Data set [3] in a line: U251 cytotoxicity. The data set is classed as cell-based. The conditions noted are these: human, U251 cells; Table 4; read-out: U251 cytotoxicity Inhibition, apparent IC50.
The target of data set [4] is Flt-1 (Homo sapiens, UniProt P17948). Put plainly: Flt-1 kinase inhibition. In kind it is cell-based. As to conditions: Table 4; read-out: Flt-1 kinase Inhibition, apparent IC50.
[5] abbreviates: Table 2, read-out: FIK1 Kinase Inhibition IC50.
Where [6] appears, read: Table 4, U251 cells overexpress Flk1, read-out: Flk-1 kinase Inhibition, apparent IC50.

Each structure is given as a SMILES string. Where two headings read alike, the source gives them in different places.

Sequence of Flk-1 (P35968 20-1356): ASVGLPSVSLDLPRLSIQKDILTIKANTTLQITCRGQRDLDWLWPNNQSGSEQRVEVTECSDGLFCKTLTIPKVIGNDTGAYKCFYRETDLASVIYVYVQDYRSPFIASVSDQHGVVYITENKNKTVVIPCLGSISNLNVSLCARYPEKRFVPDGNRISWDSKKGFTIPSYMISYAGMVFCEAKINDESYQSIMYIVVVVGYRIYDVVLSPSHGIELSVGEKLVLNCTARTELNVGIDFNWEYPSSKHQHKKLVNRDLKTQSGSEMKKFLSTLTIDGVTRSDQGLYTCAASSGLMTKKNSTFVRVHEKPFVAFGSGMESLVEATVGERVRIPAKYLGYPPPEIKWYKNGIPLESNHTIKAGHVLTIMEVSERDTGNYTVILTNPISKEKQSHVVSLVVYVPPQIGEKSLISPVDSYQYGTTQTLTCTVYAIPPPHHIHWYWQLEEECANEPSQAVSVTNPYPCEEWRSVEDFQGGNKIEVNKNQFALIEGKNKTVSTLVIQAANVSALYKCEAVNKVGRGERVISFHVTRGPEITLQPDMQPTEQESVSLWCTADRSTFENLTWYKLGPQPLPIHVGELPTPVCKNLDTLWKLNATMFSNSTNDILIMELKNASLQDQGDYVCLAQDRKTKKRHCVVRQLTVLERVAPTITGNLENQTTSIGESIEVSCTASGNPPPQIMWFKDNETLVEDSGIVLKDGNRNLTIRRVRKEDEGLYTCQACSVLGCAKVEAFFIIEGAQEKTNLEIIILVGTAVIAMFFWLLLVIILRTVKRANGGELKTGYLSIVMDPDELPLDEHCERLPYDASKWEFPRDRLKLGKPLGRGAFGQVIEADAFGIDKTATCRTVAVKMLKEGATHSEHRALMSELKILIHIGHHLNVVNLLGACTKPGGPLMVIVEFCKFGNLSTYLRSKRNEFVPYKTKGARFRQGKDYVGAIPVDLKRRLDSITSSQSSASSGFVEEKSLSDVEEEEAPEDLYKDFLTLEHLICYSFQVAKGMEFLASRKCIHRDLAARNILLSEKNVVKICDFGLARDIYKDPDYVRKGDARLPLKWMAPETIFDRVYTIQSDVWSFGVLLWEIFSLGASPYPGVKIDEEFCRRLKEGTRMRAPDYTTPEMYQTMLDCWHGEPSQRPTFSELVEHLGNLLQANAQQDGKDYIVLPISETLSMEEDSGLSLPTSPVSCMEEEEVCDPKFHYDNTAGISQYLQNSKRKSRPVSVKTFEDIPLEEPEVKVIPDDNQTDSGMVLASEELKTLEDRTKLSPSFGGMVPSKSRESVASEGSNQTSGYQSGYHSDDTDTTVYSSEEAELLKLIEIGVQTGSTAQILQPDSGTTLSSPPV
Sequence of Flt-1 (P17948 27-1338, species assumed): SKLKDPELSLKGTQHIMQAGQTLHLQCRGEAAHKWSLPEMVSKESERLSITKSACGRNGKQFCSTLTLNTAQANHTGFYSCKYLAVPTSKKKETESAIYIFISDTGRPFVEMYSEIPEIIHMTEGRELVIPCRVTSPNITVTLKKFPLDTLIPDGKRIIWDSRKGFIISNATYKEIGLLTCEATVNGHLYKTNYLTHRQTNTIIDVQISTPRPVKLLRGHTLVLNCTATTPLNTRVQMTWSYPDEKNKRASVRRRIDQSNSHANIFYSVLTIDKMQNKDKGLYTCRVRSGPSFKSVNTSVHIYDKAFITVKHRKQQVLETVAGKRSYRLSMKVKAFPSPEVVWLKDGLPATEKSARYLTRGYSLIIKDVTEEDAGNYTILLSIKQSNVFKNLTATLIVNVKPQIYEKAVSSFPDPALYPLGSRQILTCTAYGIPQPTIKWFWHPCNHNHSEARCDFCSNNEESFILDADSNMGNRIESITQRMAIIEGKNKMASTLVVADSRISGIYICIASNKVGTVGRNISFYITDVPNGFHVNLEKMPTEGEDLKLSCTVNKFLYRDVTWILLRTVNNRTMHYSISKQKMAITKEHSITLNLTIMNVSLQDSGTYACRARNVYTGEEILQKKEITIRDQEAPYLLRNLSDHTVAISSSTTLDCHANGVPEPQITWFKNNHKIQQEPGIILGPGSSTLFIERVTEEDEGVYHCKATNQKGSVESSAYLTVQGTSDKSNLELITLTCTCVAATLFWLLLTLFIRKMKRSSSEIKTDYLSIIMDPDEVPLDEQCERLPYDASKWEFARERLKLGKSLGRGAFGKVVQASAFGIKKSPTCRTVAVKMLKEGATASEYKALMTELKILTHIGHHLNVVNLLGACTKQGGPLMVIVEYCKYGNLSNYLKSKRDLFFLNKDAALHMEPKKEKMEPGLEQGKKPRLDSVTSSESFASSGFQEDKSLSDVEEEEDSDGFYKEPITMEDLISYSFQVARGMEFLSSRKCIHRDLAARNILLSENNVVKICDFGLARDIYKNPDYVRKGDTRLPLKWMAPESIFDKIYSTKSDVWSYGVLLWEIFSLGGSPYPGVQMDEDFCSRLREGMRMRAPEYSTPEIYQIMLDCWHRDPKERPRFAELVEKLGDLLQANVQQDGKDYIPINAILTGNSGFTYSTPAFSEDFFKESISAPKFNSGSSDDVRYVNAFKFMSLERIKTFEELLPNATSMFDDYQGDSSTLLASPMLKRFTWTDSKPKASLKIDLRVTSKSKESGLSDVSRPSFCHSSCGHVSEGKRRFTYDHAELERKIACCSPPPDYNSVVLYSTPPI

In general, IC50 refers to the point on the concentration scale where inhibition reaches its midpoint. For the molecule `Nc1nc(Nc2cccc(Br)c2)c2cc(Cc3ccc(-c4ccccc4)cc3)[nH]c2n1` [YJ/AG 154], in data set [1], the IC50 is less than 100 nM.

As to `COc1ccc(OC)c(Cc2cc3c(Nc4cccc(Br)c4)nc(N)nc3[nH]2)c1` [YJ/AG 178], the figures for the half-maximal inhibitory concentration (IC50) in data set [1], in data set [2] (setting [5]) and in data set [2] (setting [6]) were 1300 nM, 600 nM and 600 nM, respectively.

On to `Cc1cc(C)c(/C=C2\C(=O)Nc3ccccc32)[nH]1` [SU5416, reference compound], for which the figures for the IC50 in data set [3] and in data set [1] were 200 nM and less than 100 nM, respectively.

`COc1cc(Cc2cc3c(Nc4cccc(Br)c4)nc(N)nc3[nH]2)cc(OC)c1OC` [YJ/AG 177]: the IC50 in data set [1] was found to be 400 nM.

`Nc1nc(Nc2cccc(Br)c2)c2cc(Cc3cccc4ccccc34)[nH]c2n1` [YJ/AG 158]: the IC50 in data set [1] is less than 100 nM.

For `Nc1nc(Nc2cccc(Br)c2)c2cc(Cc3ccc(Cl)cc3Cl)[nH]c2n1` [YJ/AG 176], in data set [1], the IC50 was 10800 nM.

Regarding `Cc1ccccc1Cc1cc2c(Nc3cccc(Br)c3)nc(N)nc2[nH]1` [YJ/AG 168], the IC50 was 5000 nM in data set [3], 1200 nM in data set [1], 300 nM in data set [2] (setting [5]) and more than 50000 nM in data set [4].

As to `Nc1nc(Nc2cccc(Br)c2)c2cc(Cc3ccc(Cl)c(Cl)c3)[nH]c2n1` [YJ/AG 148], in data set [1], the 50% inhibitory concentration (IC50) was less than 100 nM. The “Toxicity remark in CAM angiogenesis column” value in data set [1] (Table 4, remark under the CAM value) is recorded as “(toxic)”.

On to `Nc1nc(Nc2cccc(Br)c2)c2cc(Cc3ccccc3Cl)[nH]c2n1` [YJ/AG 145], for which the IC50 in data set [1] is 1700 nM.

In the case of `Nc1nc(Nc2cccc(Br)c2)c2cc(Cc3ccc4ccccc4c3)[nH]c2n1` [YJ/AG 146], the IC50 was 8900 nM in data set [1], more than 50000 nM in data set [2] (setting [5]) and more than 50000 nM in data set [2] (setting [6]).

For the molecule `Nc1nc(Nc2cccc(Br)c2)c2cc(Cc3ccccc3)[nH]c2n1` [YJ/AG 156], the IC50 in data set [3] was 3400 nM; in data set [1], less than 100 nM.
